Laboratory results reported in patent publication US10030016B2 (Sunesis Pharmaceuticals, Inc., priority 2009, dated 2018).

Key:
[1] = tested on: phospho-akt (Thr308) in PC-3 cells; assay: Inhibition of phospho-akt (Thr308) in PC-3 cells, MSD phospho-akt 308 ELISA kit; type: cell-based; details: Homo sapiens; inhibition of P308 Akt in PC-3 cells using MSD, 2 hours, no serum; read-out: EC50
Method in brief: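 Phospho-Akt (Thr308) levels were measured by MSD ELISA after PC-3 cells received compound for 2 hours in serum-free medium. Controls: DMSO (high), 5 μM wortmannin (low).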

[2] = target: PDK1 (Homo sapiens (Human), UniProt O15530); assay: PDK1 kinase assay (coupled PDK1/AKT/FAM-crosstide assay, IMAP fluorescence polarization); type: biochemical; details: inhibition of PDK1 in vitro
Method in brief: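 GST-tagged human PDK1 (aa 51-359, 0.75 nM) from insect cells activated unphosphorylated GST-AKT2 (aa 140-467–PIFtide fusion, 10 nM), which phosphorylated 100 nM FAM-crosstide; 40 μM ATP, pH 7.2 Tris/MgCl2, 30 min at 25° C. IMAP fluorescence polarization read-out; ΔmP versus compound concentration fitted with a 4-parameter curve.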

Sequence of PDK1 (O15530 51-359): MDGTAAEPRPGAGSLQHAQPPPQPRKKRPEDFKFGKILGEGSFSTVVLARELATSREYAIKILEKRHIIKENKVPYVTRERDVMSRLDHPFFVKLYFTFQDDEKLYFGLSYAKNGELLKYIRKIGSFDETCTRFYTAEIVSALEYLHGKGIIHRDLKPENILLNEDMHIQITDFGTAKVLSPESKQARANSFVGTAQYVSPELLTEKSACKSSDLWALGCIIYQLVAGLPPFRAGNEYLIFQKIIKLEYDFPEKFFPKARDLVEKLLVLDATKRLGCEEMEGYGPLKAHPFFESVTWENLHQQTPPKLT

## C[C@H](NC(=O)c1cc(C#N)cnc1NCc1ccc(-c2cnc(N)c(CC3CCNC3)n2)cc1)c1ccc(F)cc1 (stereo partly drawn) [Example 185, 2-[4-(5-Amino-6-pyrrolidin-3-ylmethyl-pyrazin-2-yl)-benzylamino]-5-cyano-N-[(S)-1-(4-fluoro-phenyl)-ethyl]-nicotinamide]
[1]
  EC50: < 1000 nM
[2]
  IC50: < 100 nM

## Nc1ncc(-c2ccc(CNc3ncc(C(F)(F)F)cc3C(=O)Nc3ccc(F)cc3)cc2)nc1CC1CCNC1 (centres unmarked) [Example 186, 2-[4-(5-Amino-6-pyrrolidin-3-ylmethyl-pyrazin-2-yl)-benzylamino]-N-(4-fluoro-phenyl)-5-trifluoromethyl-nicotinamide]
[1]
  EC50: < 1000 nM
[2]
  IC50: < 100 nM

## C[C@H](NC(=O)c1nc(C#N)cnc1NCc1ccc(-c2cnc(N)c(CC3CCNC3)n2)cc1)c1ccc(F)c(F)c1 (stereo partly drawn) [Example 187, 3-[4-(5-Amino-6-pyrrolidin-3-ylmethyl-pyrazin-2-yl)-benzylamino]-6-cyano-pyrazine-2-carboxylic acid [(S)-1-(3,4-difluoro-phenyl)-ethyl]-amide]
[1]
  EC50: < 1000 nM
[2]
  IC50: < 100 nM

## C[C@H](NC(=O)c1cc(C#N)cnc1NCc1ccc(-c2cnc(N)c(N3CCC[C@@H](N)C3)n2)cc1)c1ccc(F)cc1 [Example 188, 2-{4-[5-Amino-6-((R)-3-amino-piperidin-1-yl)-pyrazin-2-yl]-benzylamino}-5-cyano-N-[(S)-1-(4-fluoro-phenyl)-ethyl]-nicotinamide]
[1]
  EC50: 1000 to 10000 nM
[2]
  IC50: < 100 nM

## Nc1ncc(-c2ccc(CNc3ncc(C(F)(F)F)cc3C(=O)Nc3ccc(F)cc3)cc2)nc1N1CCC[C@@H](N)C1 [Example 189, 2-{4-[5-Amino-6-((R)-3-amino-piperidin-1-yl)-pyrazin-2-yl]-benzylamino}-N-(4-fluoro-phenyl)-5-trifluoromethyl-nicotinamide]
[1]
  EC50: 1000 to 10000 nM
[2]
  IC50: < 100 nM

## C[C@H](NC(=O)c1nc(C#N)cnc1NCc1ccc(-c2cnc(N)c(N3CCC[C@@H](N)C3)n2)cc1)c1ccc(F)c(F)c1 [Example 190, 3-{4-[5-Amino-6-((R)-3-amino-piperidin-1-yl)-pyrazin-2-yl]-benzylamino}-6-cyano-pyrazine-2-carboxylic acid [(S)-1-(3,4-difluoro-phenyl)-ethyl]-amide]
[1]
  EC50: 1000 to 10000 nM
[2]
  IC50: < 100 nM

## C[C@H](NC(=O)c1cc(C#N)cnc1NCc1ccc(-c2cnc(N)c(N3CCNCC3)n2)cc1)c1ccc(F)cc1 [Example 191, 2-[4-(3′-Amino-3,4,5,6-tetrahydro-2H-[1,2′]bipyrazinyl-6′-yl)-benzylamino]-5-cyano-N-[(S)-1-(4-fluoro-phenyl)-ethyl]-nicotinamide]
[1]
  EC50: < 1000 nM
[2]
  IC50: < 100 nM

## C[C@H](NC(=O)c1nc(C#N)cnc1NCc1ccc(-c2cnc(N)c(N3CCNCC3)n2)cc1)c1ccc(F)c(F)c1 [Example 192, 3-[4-(3′-Amino-3,4,5,6-tetrahydro-2H-[1,2′]bipyrazinyl-6′-yl)-benzylamino]-6-cyano-pyrazine-2-carboxylic acid [(S)-1-(3,4-difluoro-phenyl)-ethyl]-amide]
[1]
  EC50: 1000 to 10000 nM
[2]
  IC50: < 100 nM

## Nc1ncc(-c2ccc(CNc3ncc(C(F)(F)F)cc3C(=O)Nc3ccc(F)cc3)cc2)nc1N1CCNCC1 [Example 193, 2-[4-(3′-Amino-3,4,5,6-tetrahydro-2H-[1,2′]bipyrazinyl-6′-yl)-benzylamino]-N-(4-fluoro-phenyl)-5-trifluoromethyl-nicotinamide]
[1]
  EC50: 1000 to 10000 nM
[2]
  IC50: < 100 nM

## NCCNc1nc(-c2ccc(CNc3ncc(C(F)(F)F)cc3C(=O)Nc3ccc(F)cc3)cc2)cnc1N [Example 194, 2-{4-[5-Amino-6-(2-amino-ethylamino)-pyrazin-2-yl]-benzylamino}-N-(4-fluoro-phenyl)-5-trifluoromethyl-nicotinamide]
[1]
  EC50: < 1000 nM
[2]
  IC50: < 100 nM

## C[C@H](NC(=O)c1nc(C#N)cnc1NCc1ccc(-c2cnc(N)c(NCCN)n2)cc1)c1ccc(F)c(F)c1 [Example 195, 3-{4-[5-Amino-6-(2-amino-ethylamino)-pyrazin-2-yl]-benzylamino}-6-cyano-pyrazine-2-carboxylic acid [(S)-1-(3,4-difluoro-phenyl)-ethyl]-amide]
[1]
  EC50: < 1000 nM
[2]
  IC50: < 100 nM

## Nc1ncc(-c2ccc(CNc3ncc(C(F)(F)F)cc3C(=O)Nc3ccc(F)cc3)cc2)nc1N1CCC[C@H](N)C1 [Example 196]
[1]
  EC50: < 1000 nM
[2]
  IC50: < 100 nM

## C[C@H](NC(=O)c1cc(C#N)cnc1NCc1ccc(-c2cnc(N)c(N3CCC[C@H](N)C3)n2)cc1)c1ccc(F)cc1 [Example 197]
[1]
  EC50: < 1000 nM
[2]
  IC50: < 100 nM

## C[C@H](NC(=O)c1nc(C#N)cnc1NCc1ccc(-c2cnc(N)c(N3CCC[C@H](N)C3)n2)cc1)c1ccc(F)c(F)c1 [Example 198]
[1]
  EC50: < 1000 nM
[2]
  IC50: < 100 nM

## C[C@H](NC(=O)c1cc(C#N)cnc1NCc1ccc(-c2cnc(N)c(NCCN)n2)cc1)c1ccc(F)cc1 [Example 199, 2-{4-[5-Amino-6-(2-amino-ethylamino)-pyrazin-2-yl]-benzylamino}-5-cyano-N-[(S)-1-(4-fluoro-phenyl)-ethyl]-nicotinamide]
[1]
  EC50: < 1000 nM
[2]
  IC50: < 100 nM

## CC(C)(N)COc1nc(-c2ccc(CNc3ncc(C(F)(F)F)cc3C(=O)Nc3ccc(F)cc3)cc2)cnc1N [Example 200, 2-{4-[5-Amino-6-(2-amino-2-methyl-propoxy)-pyrazin-2-yl]-benzylamino}-N-(4-fluoro-phenyl)-5-trifluoromethyl-nicotinamide]
[1]
  EC50: 1000 to 10000 nM
[2]
  IC50: < 100 nM

## C[C@H](NC(=O)c1cc(C#N)cnc1NCc1ccc(-c2cnc(N)c(C(N)=O)c2)cc1)c1ccc(F)cc1 [Example 201, (S)-2-(4-(6-amino-5-carbamoylpyridin-3-yl)benzylamino)-5-cyano-N-(1-(4-fluorophenyl)ethyl)nicotinamide]
[1]
  EC50: < 1000 nM
[2]
  IC50: < 100 nM

## C[C@H](NC(=O)c1cc(C#N)cnc1NCc1ccc(-c2cnc(N)c(C(=O)NCCN3CCOCC3)c2)cc1)c1ccc(F)cc1 [Example 202, (S)-2-amino-5-(4-((5-cyano-3-(1-(4-fluorophenyl)ethylcarbamoyl)pyridin-2-ylamino)methyl)phenyl)-N-(2-morpholinoethyl) nicotinamide]
[1]
  EC50: 1000 to 10000 nM
[2]
  IC50: < 100 nM

## CNC(=O)c1cc(-c2ccc(CNc3ncc(C#N)cc3C(=O)N[C@@H](C)c3ccc(F)cc3)cc2)cnc1N [Example 203, (S)-2-amino-5-(4-((5-cyano-3-(1-(4-fluorophenyl)ethylcarbamoyl)pyridin-2-ylamino)methyl)phenyl)-N-methylnicotinamide]
[1]
  EC50: < 1000 nM
[2]
  IC50: < 100 nM

## C[C@H](NC(=O)c1cc(C#N)cnc1NCc1ccc(-c2cnc(N)c(C(=O)NCCO)c2)cc1)c1ccc(F)cc1 [Example 204, (S)-2-amino-5-(4-((5-cyano-3-(1-(4-fluorophenyl)ethylcarbamoyl)pyridin-2-ylamino)methyl)phenyl)-N-(2-hydroxyethyl) nicotinamide]
[1]
  EC50: < 1000 nM
[2]
  IC50: < 100 nM

## C[C@H](NC(=O)c1cc(C#N)cnc1NCc1ccc(-c2cnc(N)c(C(=O)N(C)C)c2)cc1)c1ccc(F)cc1 [Example 205, (S)-2-amino-5-(4-((5-cyano-3-(1-(4-fluorophenyl)ethylcarbamoyl)pyridin-2-ylamino)methyl)phenyl)-N,N-dimethylnicotinamide]
[1]
  EC50: 1000 to 10000 nM
[2]
  IC50: 100 to 1000 nM

## C[C@H](NC(=O)c1cc(C#N)cnc1NCc1ccc(-c2cnc(N)c(C(=O)NCC(O)CO)c2)cc1)c1ccc(F)cc1 (some centres unmarked) [Example 206]
[1]
  EC50: 1000 to 10000 nM
[2]
  IC50: < 100 nM
